Experiments:
[1] = 1-octanol/water distribution coefficient, log P of the compound; type: physicochemical
Phaseolus vulgaris = test: Phytotoxicity against Phaseolus vulgaris (kidney bean) assessed as necrosis of leaf at 100 ppm after 7 days in greenhouse conditions; type: organism-based; details: in vivo, 168 h
Botrytis cinerea [2] = test: Fungicidal activity against benzimidazole-resistant Botryotinia fuckeliana infected kidney bean leaf at 100 ppm after 7 days in greenhouse conditions by detached leaf test; type: functional
Botrytis cinerea [3] = test: Fungicidal activity against benzimidazole-resistant Botryotinia fuckeliana at 6.2 ppm after 48 hr by poisoned food technique; type: functional
Botrytis cinerea [4] = test: Fungicidal activity against benzimidazole-resistant Botryotinia fuckeliana at 200 ppm after 48 hr by poisoned food technique; type: functional
Botrytis cinerea [5] = test: Fungicidal activity against benzimidazole-resistant Botryotinia fuckeliana after 48 hr by poisoned food technique; type: functional, organism-based
Botrytis cinerea [6] = test: Fungicidal activity against benzimidazole-resistant Botryotinia fuckeliana at 25 ppm after 48 hr by poisoned food technique; type: functional
Botrytis cinerea [7] = test: Fungicidal activity against benzimidazole-sensitive Botryotinia fuckeliana after 48 hr by poisoned food technique; type: functional, organism-based
Botrytis cinerea [8] = test: Resistance ratio of EC50 for benzimidazole-resistant Botryotinia fuckeliana to EC50 for benzimidazole-sensitive Botryotinia fuckeliana; type: functional
Botrytis cinerea [9] = test: Ratio of DMPF EC50 to compound EC50 for benzimidazole-resistant Botryotinia fuckeliana; type: functional
[10] = Botrytis cinerea, 48 h, read-out: pEC50 (converted)

Compound	logP [1]	Activity (Phaseolus vulgaris)	Activity (Botrytis cinerea [2])	Activity (Botrytis cinerea [3])	Activity (Botrytis cinerea [4])	EC50 (Botrytis cinerea [5]; [10])	Activity (Botrytis cinerea [6])	EC50 (Botrytis cinerea [5])	EC50 (Botrytis cinerea [7])	Ratio EC50 (Botrytis cinerea [8])	Ratio EC50 (Botrytis cinerea [9])
CCO/N=C/Nc1cc(Cl)cc(Cl)c1	3	<= 10%	<25%	<25%	100%	12 µM	26%	–	–	–	–
CO/N=C/Nc1cc(Cl)cc(Cl)c1	–	–	–	–	–	–	–	3 ppm	50 ppm	10000	–
C#CCc1c(Cl)cc(N/C=N/OC)cc1Cl	3.3	Non-toxic	–	–	–	0.0182 µM	–	0.005 ppm	30 ppm	10	600
CCO/N=C/Nc1cc(Cl)c(Cl)c(Cl)c1 [N'-ETHOXY-N-(3,4,5-TRICHLOROPHENYL)FORMIMIDAMIDE]	–	Non-toxic	<25%	<25%	26%	–	<25%	–	–	–	–
CCO/N=C/Nc1cc(OCC)c(OCC)c(OCC)c1 [N'-ETHOXY-N-(3,4,5-TRIETHOXYPHENYL)FORMIMIDAMIDE]	–	Non-toxic	<25%	<25%	100%	–	26%	–	–	–	–
CCO/N=C/Nc1ccc(OCC)cc1C [N'-ETHOXY-N-(4-ETHOXY-2-METHYLPHENYL)FORMIMIDAMIDE]	–	<= 10%	<25%	<25%	<25%	–	<25%	–	–	–	–
CCO/N=C/Nc1cc(C)c(OCC)c(C)c1 [N'-ETHOXY-N-(4-ETHOXY-3,5-DIMETHYLPHENYL)FORMIMIDAMIDE]	–	<= 10%	50%	50%	100%	–	100%	–	–	–	–
CCO/N=C/Nc1ccc(OCC)c(C)c1 [N'-ETHOXY-N-(4-ETHOXY-3-METHYLPHENYL)FORMIMIDAMIDE]	–	11%	<25%	<25%	100%	–	<25%	–	–	–	–
CCO/N=C/Nc1cc(C)c(OCC)c(OCC)c1 [N-(3,4-DIETHOXY-5-METHYLPHENYL)-N'-ETHOXYFORMIMIDAMIDE]	–	Non-toxic	70%	100%	100%	–	100%	–	–	–	–
CCO/N=C/Nc1cc(Cl)cc(Cl)c1OCC [N-(3,5-DICHLORO-2-ETHOXYPHENYL)-N'-ETHOXYFORMIMIDAMIDE]	–	Non-toxic	<25%	70%	100%	–	90%	–	–	–	–
CCO/N=C/Nc1cc(Cl)c(OCC)c(Cl)c1 [N-(3,5-DICHLORO-4-ETHOXYPHENYL)-N'-ETHOXYFORMIMIDAMIDE]	–	Non-toxic	100%	90%	100%	–	100%	–	–	–	–
CCO/N=C/Nc1cc(Cl)c(C)c(Cl)c1 [N-(3,5-DICHLORO-4-METHYLPHENYL)-N'-ETHOXYFORMIMIDAMIDE]	–	Non-toxic	<25%	<25%	<25%	–	<25%	–	–	–	–
CCO/N=C/Nc1cc(Cl)c(OCC)c(OCC)c1 [N-(3-CHLORO-4,5-DIETHOXYPHENYL)-N'-ETHOXYFORMIMIDAMIDE]	–	Non-toxic	100%	100%	100%	–	100%	–	–	–	–
CCO/N=C/Nc1ccc(OCC)c(Cl)c1 [N-(3-CHLORO-4-ETHOXYPHENYL)-N'-ETHOXYFORMIMIDAMIDE]	–	Non-toxic	<25%	<25%	100%	–	26%	–	–	–	–
CCO/N=C/Nc1ccc(C)c(Cl)c1 [N-(3-CHLORO-4-METHYLPHENYL)-N'-ETHOXYFORMIMIDAMIDE]	–	<= 10%	<25%	<25%	100%	–	26%	–	–	–	–
CCO/N=C/Nc1ccc(Cl)cc1C [N-(4-CHLORO-2-METHYLPHENYL)-N'-ETHOXYFORMIMIDAMIDE]	–	11%	<25%	<25%	70%	–	<25%	–	–	–	–
CCO/N=C/Nc1cc(Cl)ccc1OCC [N-(5-CHLORO-2-ETHOXYPHENYL)-N'-ETHOXYFORMIMIDAMIDE]	–	<= 10%	<25%	<25%	100%	–	100%	–	–	–	–

Reference: ChEMBL document CHEMBL3045758, “Quantitative Structure-Activity Relationships of Fungicidal N-Phenylformamidoximes” (J Pestic Sci, 1992)
